Data: ChEMBL document CHEMBL6153135, “Rational Design of a Potent, Selective, and Metabolically Stable CDK9 Inhibitor to Counteract Osimertinib Resistance through Mcl-1 Suppression and Enhanced BRD4 Co-Targeting” (J Med Chem, 2025)
Calls of active or inactive are those of the source. The calls are words filed in the database; no cut-off is given here.

Tests used:
NCI-H596 = experiment: Anti-proliferative activity against human NCI-H596 cells assessed as cell inhibition measured after 72 hrs by MTT assay; assay type: functional, cell-based; details: NCI-H596, 72 h
[1] = Metabolic stability in human liver microsomes assessed as clearance measured for 5 to 60 mins by LC-MS/MS analysis; assay type: ADME, Microsome; details: time 5-60 min, read-out: CLH
[2] = system: Osimertinib-resistant HCC827 cell; experiment: Inhibition of homologous recombination repair in human Osimertinib-resistant HCC827 cells by KEGG analysis; assay type: functional, cell-based
[3] = Metabolic stability in pig liver microsomes assessed as clearance measured for 5 to 60 mins by LC-MS/MS analysis; assay type: ADME, Sus scrofa, Microsome; details: time 5-60 min, read-out: CLH
[4] = molecular target: CDK18/Cyclin Y (Homo sapiens) (UniProt Q07002+Q8ND76); experiment: Inhibition of CDK18/Cyclin Y(unknown origin) at 100 nM preincubated for 10 mins followed by substrate/ATP measured after 60 mins by ADP-Glo assay relative to control; assay type: protein-complex assay; details: time 70.0 min
[5] = Clearance in Sprague-Dawley rat at 20 mg/kg, po; assay type: ADME, organism-based; details: in vivo
[6] = molecular target: CDK2/Cyclin A2 (Homo sapiens) (UniProt P24941+P20248); experiment: Inhibition of CDK2/Cyclin A2 (unknown origin) at 100 nM preincubated for 10 mins followed by substrate/ATP measured after 60 mins by ADP-Glo assay relative to control; assay type: protein-complex assay; details: time 70.0 min
[7] = system: Lung adenocarcinoma organoid; experiment: Anti-tumor activity against Osimertinib-resistant patient (#0416)-derived human Lung adenocarcinoma organoid assessed as inhibition of cell viability measured after 96 hrs relative to control; assay type: functional, Neoplasm
[8] = Cmax in BALB/c mouse at 15 mg/kg, po; details: in vivo
[9] = Clearance in Sprague-Dawley rat at 2 mg/kg, iv; assay type: ADME, organism-based; details: in vivo
[10] = Drug concentration in tumor of BALB-c nude mouse xenografted with human NCI-H1975 cells at 15 mg/kg, iv measured after 30 mins by LC-MS/MS analysis; assay type: ADME, organism-based, Neoplasm; details: read-out: Ct
HCC827 [11] = experiment: Anti-proliferative activity against human HCC827 cells assessed as cell inhibition measured after 72 hrs in presence of 500 nM JQ1 by MTT assay; assay type: functional, cell-based; details: HCC827, 72 h
[12] = system: Osimertinib-resistant HCC827 cell; experiment: Downregulation of c-Myc level in human Osimertinib-resistant HCC827 cells in presence of JQ1 by RNA-Seq analysis; assay type: functional, cell-based
[13] = molecular target: Cyclin-dependent kinase 5/CDK5 activator 1 (Homo sapiens) (UniProt Q00535+Q15078); experiment: Inhibition of CDK5/p35NCK (unknown origin) at 100 nM preincubated for 10 mins followed by substrate/ATP measured after 60 mins by ADP-Glo assay relative to control; assay type: protein-complex assay; details: time 70.0 min
Chain of Cyclin-dependent kinase 5/CDK5 activator 1 (Homo sapiens) (Q00535 whole entry): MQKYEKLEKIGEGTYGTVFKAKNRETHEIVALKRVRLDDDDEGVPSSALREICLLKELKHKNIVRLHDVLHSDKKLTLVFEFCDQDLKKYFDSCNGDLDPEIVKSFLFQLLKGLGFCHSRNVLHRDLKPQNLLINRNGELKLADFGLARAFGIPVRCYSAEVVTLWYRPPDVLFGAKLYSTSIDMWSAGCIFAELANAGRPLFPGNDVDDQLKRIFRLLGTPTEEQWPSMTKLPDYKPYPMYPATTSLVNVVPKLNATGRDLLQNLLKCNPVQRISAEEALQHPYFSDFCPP
Chain of Cyclin-dependent kinase 5/CDK5 activator 1 (Homo sapiens) (Q15078 99-307 partner limits assumed): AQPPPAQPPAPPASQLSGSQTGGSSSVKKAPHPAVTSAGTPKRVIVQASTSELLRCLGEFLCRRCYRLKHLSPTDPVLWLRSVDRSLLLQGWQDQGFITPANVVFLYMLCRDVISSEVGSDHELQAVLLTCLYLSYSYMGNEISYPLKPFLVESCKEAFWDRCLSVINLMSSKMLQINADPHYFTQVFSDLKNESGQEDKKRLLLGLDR

[14] = Oral bioavailability in Sprague-Dawley rat at 20 mg/kg; assay type: ADME, organism-based; details: in vivo
[15] = system: Osimertinib-resistant NCI-H1975 cell; experiment: Induction of apoptosis in human Osimertinib-resistant NCI-H1975 cells assessed as early apoptotic cells at 2 uM incubated for 16 hrs by Annexin V-FITC/PI staining based flow cytometry (reference value: 8.02 %); assay type: functional
A549 = experiment: Anti-proliferative activity against human A549 cells assessed as cell inhibition measured after 72 hrs by MTT assay; assay type: functional, cell-based; details: A549, 72 h
[16] = system: Lung adenocarcinoma organoid; experiment: Anti-tumor activity against patient (#2223)-derived human Lung adenocarcinoma organoid assessed as inhibition of cell viability measured after 96 hrs relative to control; assay type: functional, Neoplasm
[17] = Downregulation of c-Myc level in human Osimertinib-resistant HCC827 cells at 100 nM incubated for 12 hrs in presence of JQ1 by Western blot analysis relative to control; assay type: functional, Osimertinib-resistant HCC827 cell
[18] = molecular target: CDK3/Cyclin E (Homo sapiens) (UniProt P24864+Q00526); experiment: Inhibition of CDK3/Cyclin E1 (unknown origin) at 100 nM preincubated for 10 mins followed by substrate/ATP measured after 60 mins by ADP-Glo assay relative to control; assay type: protein-complex assay; details: time 70.0 min
Chain of CDK3/Cyclin E (Homo sapiens) (P24864 whole entry, looked up): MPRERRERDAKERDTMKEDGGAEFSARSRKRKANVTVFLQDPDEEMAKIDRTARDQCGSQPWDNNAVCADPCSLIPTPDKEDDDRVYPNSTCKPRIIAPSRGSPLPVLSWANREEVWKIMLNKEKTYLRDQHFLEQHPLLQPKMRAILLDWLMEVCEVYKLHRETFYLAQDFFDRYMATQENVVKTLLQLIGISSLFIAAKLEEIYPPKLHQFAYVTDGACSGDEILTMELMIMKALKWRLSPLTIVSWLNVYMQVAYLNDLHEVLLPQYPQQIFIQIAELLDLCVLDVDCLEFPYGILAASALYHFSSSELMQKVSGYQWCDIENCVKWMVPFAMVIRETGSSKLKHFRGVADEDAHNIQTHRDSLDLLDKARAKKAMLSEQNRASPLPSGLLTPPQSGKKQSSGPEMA
Chain of CDK3/Cyclin E (Homo sapiens) (Q00526 whole entry, looked up): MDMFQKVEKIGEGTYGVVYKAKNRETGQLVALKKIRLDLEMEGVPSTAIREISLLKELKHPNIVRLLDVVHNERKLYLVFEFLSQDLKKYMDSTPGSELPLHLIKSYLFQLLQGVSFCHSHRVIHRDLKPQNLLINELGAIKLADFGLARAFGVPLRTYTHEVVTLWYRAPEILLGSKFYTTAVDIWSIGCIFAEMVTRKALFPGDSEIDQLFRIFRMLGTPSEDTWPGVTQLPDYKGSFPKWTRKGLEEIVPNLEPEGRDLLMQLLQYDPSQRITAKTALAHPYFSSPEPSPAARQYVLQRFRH

HCC827 [19] = experiment: Selectivity ratio of IC50 for anti-proliferative activity against human HCC827 cells to IC50 for anti-proliferative activity against human HCC827 cells in presence of JQ1; assay type: functional
[20] = Metabolic stability in mouse liver microsomes assessed as clearance measured for 5 to 60 mins by LC-MS/MS analysis; assay type: ADME, Microsome; details: time 5-60 min, read-out: CLH
[21] = molecular target: Cyclin-dependent kinase 9 (Homo sapiens) (UniProt P50750); experiment: Inhibition of CDK9 in human Osimertinib-resistant HCC827 cells assessed as decrease in Mcl-1 level at 100 nM incubated for 12 hrs in presence of JQ1 by Western blot analysis; assay type: cell-based; details: Osimertinib-resistant HCC827 cell
Chain of Cyclin-dependent kinase 9 (Homo sapiens) (P50750 whole entry): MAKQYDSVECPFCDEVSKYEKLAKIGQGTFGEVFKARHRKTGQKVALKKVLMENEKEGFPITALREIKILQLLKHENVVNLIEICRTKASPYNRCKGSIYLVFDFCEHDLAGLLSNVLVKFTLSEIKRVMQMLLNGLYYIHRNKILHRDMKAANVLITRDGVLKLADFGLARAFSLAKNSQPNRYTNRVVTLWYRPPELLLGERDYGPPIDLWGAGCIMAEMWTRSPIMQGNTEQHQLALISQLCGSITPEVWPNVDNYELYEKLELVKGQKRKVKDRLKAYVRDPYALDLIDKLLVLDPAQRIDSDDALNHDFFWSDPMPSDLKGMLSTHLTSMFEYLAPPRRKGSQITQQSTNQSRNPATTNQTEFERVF

[22] = Selectivity ratio of IC50 for anti-proliferative activity against human NCI-H1975 cells to IC50 for anti-proliferative activity against human NCI-H1975 cells in presence of JQ1; assay type: functional
[23] = system: Osimertinib-resistant NCI-H1975 cell; experiment: Induction of apoptosis in human Osimertinib-resistant NCI-H1975 cells assessed as necrotic cells at 2 uM incubated for 16 hrs by Annexin V-FITC/PI staining based flow cytometry (reference value: 1.17 %); assay type: functional
[24] = system: Osimertinib-resistant NCI-H1975 cell; experiment: Induction of apoptosis in human Osimertinib-resistant NCI-H1975 cells assessed as necrotic cells at 0.5 uM incubated for 16 hrs by Annexin V-FITC/PI staining based flow cytometry (reference value: 1.17 %); assay type: functional
[25] = system: Osimertinib-resistant NCI-H1975 cell; experiment: Anti-proliferative activity against human Osimertinib-resistant NCI-H1975 cells assessed as cell inhibition measured after 72 hrs in presence of 250 nM JQ1 by MTT assay; assay type: functional, cell-based
[26] = system: Osimertinib-resistant NCI-H1975 cell; experiment: Induction of apoptosis in human Osimertinib-resistant NCI-H1975 cells assessed as viable cells at 0.5 uM incubated for 16 hrs by Annexin V-FITC/PI staining based flow cytometry (reference value: 89.4 %); assay type: functional; details: read-out: Activity
[27] = system: Lung adenocarcinoma organoid; experiment: Anti-tumor activity against Almonertinib-resistant patient (#2566)-derived human Lung adenocarcinoma organoid assessed as inhibition of cell viability measured after 96 hrs; assay type: functional, tissue-based; details: Neoplasm
[28] = system: Osimertinib-resistant NCI-H1975 cell; experiment: Anti-proliferative activity against human Osimertinib-resistant NCI-H1975 cells assessed as cell inhibition measured after 72 hrs by MTT assay; assay type: functional, cell-based
[29] = Toxicity in BALB-c nude mouse xenografted with human NCI-H1975 cells assessed as pathological damage in liver at 15 mg/kg, iv administered on every two days by H and E staining based analysis; assay type: organism-based; details: in vivo
[30] = Metabolic stability in rat liver microsomes assessed as clearance measured for 5 to 60 mins by LC-MS/MS analysis; assay type: ADME, Microsome; details: time 5-60 min, read-out: CLH
[31] = system: Osimertinib-resistant NCI-H1975 cell; experiment: Selectivity ratio of IC50 for anti-proliferative activity against human Osimertinib-resistant NCI-H1975 cells to IC50 for anti-proliferative activity against human Osimertinib-resistant NCI-H1975 cells in presence of JQ1; assay type: functional
NCI-H1975 [32] = experiment: Anti-proliferative activity against human NCI-H1975 cells assessed as cell inhibition measured after 72 hrs in presence of 100 nM JQ1 by MTT assay; assay type: functional, cell-based; details: NCI-H1975, 72 h
[33] = AUC (0 to t) in BALB/c mouse at 2 mg/kg, iv; assay type: ADME, organism-based; details: in vivo
NCI-H1975 [34] = experiment: Antitumor activity against human NCI-H1975 cells xenografted in BALB-c nude mouse at 15 mg/kg, iv administered on every two days relative to control; assay type: functional; details: NCI-H1975, 48 h, read-out: TGI

## CC(=O)N1CCC(NC(=O)c2ccc3cc2OCCCCCCOc2cc(ccc2F)-c2nc(ncc2F)N3)CC1
NCI-H596
  IC50: 0.09 µM
[1]
  microsomal CLint: 10.8 µL/min/mg
[2]
  inhibition: Active
[3]
  microsomal CLint: 35.3 µL/min/mg
[4]
  inhibition: 5.98%
[5]
  CL/F: 63.3 mL/min/kg
[6]
  inhibition: 17.8%
[7]
  Imax: >98%
[8]
  Cmax: 344.1 ng/mL
[9]
  clearance: 13.3 mL/min/kg
[10]
  concentration at 0.5 h: 864 ng/mL
HCC827 [11]
  IC50: 0.0097 µM
[12]
  Activity: Active
[13]
  inhibition: 7.24%
[14]
  bioavailability: 14.3%
[15]
  Activity: 26%
A549
  IC50: 0.14 µM
[16]
  Imax: 99.9%
[17]
  Activity: 100%
[18]
  inhibition: 9.68%
HCC827 [19]
  Ratio IC50: 10
[20]
  microsomal CLint: 21.6 µL/min/mg
[21]
  inhibition: Active
[22]
  Ratio IC50: 10
[23]
  Activity: 0.97%
[24]
  Activity: 1.46%
[25]
  IC50: 0.0146 µM
[26]
  viability at 0.5 µM: 63.1%
[27]
  IC50: 0.0483 µM
[28]
  IC50: 0.05 µM
[29]
  Activity: Non-toxic
[30]
  microsomal CLint: 38.4 µL/min/mg
[31]
  Ratio IC50: 10
NCI-H1975 [32]
  IC50: 0.133 µM
[33]
  AUC(0-t): 380 ng·h/mL
NCI-H1975 [34]
  inhibition in vivo at 15 mg/kg: 65.8%
